Experimental data from patent US7531554B2, “4-oxoquinoline compound and use thereof as HIV integrase inhibitor” (Japan Tobacco Inc., priority 2004, dated 2009).
pIC50: −log10 of the molar value.

Target: T1, HIV integrase (Human immunodeficiency virus type 1 group M subtype B, UniProt P12497, F1332H)
T1 construct: HIV integrase full length gene (J. Virol., 67, 425-437 (1993)) in which phenylalanine at codon 185 was substituted by histidine; made in house; host or cells: Escherichia coli BL21(DE3)
Test: Determination of enzyme (HIV integrase) inhibitory activity
Format: biochemical
Conditions: recombinant integrase protein (F185H), donor DNA/target DNA, absorbance at 450 nm
Procedure: HIV integrase full length gene (J. Virol., 67, 425-437 (1993)) in which phenylalanine at codon 185 was substituted by histidine, was inserted between the restriction enzyme NdeI and XhoI sites of plasmid pET21a(+) (Novagen), whereby an integrase expression vector pET21a-IN-F185H was constructed.
Escherichia coli recombinant BL21(DE3) transformed with plasmid pET21a-IN-F185H obtained in (i) was shake cultured at 30° C. in a liquid medium containing ampicillin. When the culture reached the logarithmic growth phase, isopropyl-β-D-thiogalactopyranoside was added to promote expression of integrase gene. The culture was continued for 3 hr to promote accumulation of the integrase protein. The recombinant E. coli was collected in pellets by centrifugal separation and preserved at −80° C.
The E. coli was suspended in Lysis buffer (20 mM HEPES (pH 7.5), 5 mM DTT, 10 mM CHAPS, 10% glycerol) containing 1M sodium chloride and subjected to repeat pressurization and depressurization for rupture, and centrifugal separation at 4° C., 40,000×g, 60 min to recover a water-soluble fraction (supernatant). This was diluted 10-fold with Lysis buffer free of sodium chloride, mixed with SP-Sepharose (Pharmacia Corporation) and stirred at 4° C. for 60 min to allow adsorption of integrase protein to the resin. The resin was washed with Lysis buffer containing 100 mM sodium chloride and the integrase protein was eluted with Lysis buffer containing 1M sodium chloride.
The eluted integrase protein solution was subjected to a Superdex 75 (Pharmacia Corporation) column for gel filtration. The protein was eluted with Lysis buffer containing 1M sodium chloride.
The obtained fractions of the integrase protein were collected and preserved at −80° C.
The following DNA synthesized by Greiner was dissolved in TE buffer (10 mM Tris-hydrochloric acid (pH 8.0), 1 mM EDTA) and mixed with donor DNA, target DNA, and each complementary strand (+ and − strands) to 1 μM. The mixture was heated at 95° C. for 5 min, 80° C. for 10 min, 70° C. for 10 min, 60° C. for 10 min, 50° C. for 10 min and 40° C. for 10 min and kept at 25° C. to give a double stranded DNA, which was used for the test. Donor DNA ([…] attached to the 5′ terminal) Donor + strand: 5′-Biotin-ACCCTTTTAGTCAGTGTGGAAAATCTCTAGCA-3′ (SEQ ID NO:1) Donor − strand: 5′-ACTGCTAGAGATTTTCCACACTGACTAAAAG-3′ (SEQ ID NO:2) Target DNA (+, − strands both having digoxigenin added at 3′ terminal) Target + strand: 5′-TGACCAAGGGCTAATTCACT-Dig-3′ (SEQ ID NO:3) Target − strand: 5′-AGTGAATTAGCCCTTGGTCA-Dig-3′ (SEQ ID NO:4)
The donor DNA was diluted with TE buffer to 10 nM, of which 50 μl was added to each well of streptavidin-coated microtiter plate (Roche) and allowed to adsorb at 37° C. for 60 min. The plate was washed with phosphate buffer (Dulbecco's PBS, Sanko Junyaku Co., Ltd.) containing 0.1% Tween 20 and phosphate buffer. Then, an enzyme reaction mixture (70 μl), a test substance (10 μl) diluted with the reaction mixture and 100 μg/ml integrase protein (10 μl) were added to each well and reacted at 37° C. for 60 min.
Then, 50 nM target DNA (10 μl) was added, reacted at 37° C. for 10 min and washed with phosphate buffer containing 0.1% Tween 20 to stop the reaction.
Then, 100 mU/ml peroxidase labeled anti-digoxigenin antibody solution (Roche, 100 μl) was added, and the mixture was reacted at 37° C. for 60 min, followed by washing with phosphate buffer containing 0.1% Tween 20.
A peroxidase color solution (Bio Rad, 100 μl) was added and allowed to react at room temperature for 4 min. The color reaction was stopped by adding 1N sulfuric acid (100 μl). The absorbance at 450 nm was measured.
The HIV integrase inhibitory activity (IC50) of the compound of the present invention was calculated from the inhibition rate according to the following formula. […]

| Structure (SMILES) | pIC50 |
| --- | --- |
| COC[C@@H](CO)n1cc(C(=O)O)c(=O)c2cc(Cc3cccc(Cl)c3F)ccc21 [Example 2-14, 6-(3-chloro-2-fluorobenzyl)-1-((1R)-1-(hydroxymethyl)-2-methoxyethyl)-4-oxo-1,4-dihydroquinoline-3-carboxylic acid] | 7.89 |
| CO[C@H](C)[C@@H](CO)n1cc(C(=O)O)c(=O)c2cc(Cc3cccc(Cl)c3F)ccc21 [Example 2-15, 6-(3-chloro-2-fluorobenzyl)-1-((1R,2R)-1-(hydroxymethyl)-2-methoxypropyl)-4-oxo-1,4-dihydroquinoline-3-carboxylic acid] | 8.28 |
| CSCC[C@@H](CO)n1cc(C(=O)O)c(=O)c2cc(Cc3cccc(Cl)c3F)ccc21 [Example 2-16, 6-(3-chloro-2-fluorobenzyl)-1-((1S)-1-(hydroxymethyl)-3-(methylthio)propyl)-4-oxo-1,4-dihydroquinoline-3-carboxylic acid] | 8.24 |
| CS(=O)(=O)CC[C@@H](CO)n1cc(C(=O)O)c(=O)c2cc(Cc3cccc(Cl)c3F)ccc21 [Example 2-17, 6-(3-chloro-2-fluorobenzyl)-1-((1S)-1-(hydroxymethyl)-3-mesylpropyl)-4-oxo-1,4-dihydroquinoline-3-carboxylic acid] | 7.85 |
| COC[C@@H](CO)n1cc(C(=O)O)c(=O)c2cc(Cc3cccc(Cl)c3F)c(OC)cc21 [Example 2-18, 6-(3-chloro-2-fluorobenzyl)-1-((1R)-1-(hydroxymethyl)-2-methoxyethyl)-7-methoxy-4-oxo-1,4-dihydroquinoline-3-carboxylic acid] | 8.22 |
| CC(C)[C@@H](CO)n1cc(C(=O)O)c(=O)c2cc(Cc3cccc(Cl)c3F)cc(OCCO)c21 [Example 3-1, 6-(3-chloro-2-fluorobenzyl)-8-(2-hydroxyethoxy)-1-((1S)-1-(hydroxymethyl)-2-methylpropyl)-4-oxo-1,4-dihydroquinoline-3-carboxylic acid] | 8.29 |
| CC(C)[C@@H](CO)n1cc(C(=O)O)c(=O)c2cc(Cc3cccc(Cl)c3F)cc(OCCCO)c21 [Example 3-2, 6-(3-chloro-2-fluorobenzyl)-1-((1S)-1-(hydroxymethyl)-2-methylpropyl)-8-(3-hydroxypropoxy)-4-oxo-1,4-dihydroquinoline-3-carboxylic acid] | 8.33 |
| CC(C)[C@@H](CO)n1cc(C(=O)O)c(=O)c2cc(Cc3cccc(Cl)c3F)cc(OCCCCO)c21 [Example 3-3, 6-(3-chloro-2-fluorobenzyl)-8-(4-hydroxybutoxy)-1-((1S)-1-(hydroxymethyl)-2-methylpropyl)-4-oxo-1,4-dihydroquinoline-3-carboxylic acid] | 8.20 |
| COCCOc1cc(Cc2cccc(Cl)c2F)cc2c(=O)c(C(=O)O)cn([C@H](CO)C(C)C)c12 [Example 3-4, 6-(3-chloro-2-fluorobenzyl)-1-((1S)-1-(hydroxymethyl)-2-methylpropyl)-8-(2-methoxyethoxy)-4-oxo-1,4-dihydroquinoline-3-carboxylic acid] | 8.35 |
| CC(C)[C@@H](CO)n1cc(C(=O)O)c(=O)c2cc(Cc3cccc(Cl)c3F)cc(O)c21 [Example 3-5, 6-(3-chloro-2-fluorobenzyl)-8-hydroxy-1-((1S)-1-(hydroxymethyl)-2-methylpropyl)-4-oxo-1,4-dihydroquinoline-3-carboxylic acid] | 8.40 |
| CC(C)[C@@H](CO)n1cc(C(=O)O)c(=O)c2cc(Cc3cccc(Cl)c3F)cc(OCCN(C)C)c21 [Example 3-6, 6-(3-chloro-2-fluorobenzyl)-8-(2-(dimethylamino)ethoxy)-1-((1S)-1-(hydroxymethyl)-2-methylpropyl)-4-oxo-1,4-dihydroquinoline-3-carboxylic acid] | 7.96 |
| COCCCOc1cc(Cc2cccc(Cl)c2F)cc2c(=O)c(C(=O)O)cn([C@H](CO)C(C)C)c12 [Example 3-7, 6-(3-chloro-2-fluorobenzyl)-1-((1S)-1-(hydroxymethyl)-2-methylpropyl)-8-(3-methoxypropoxy)-4-oxo-1,4-dihydroquinoline-3-carboxylic acid] | 8.33 |
| COCCCCOc1cc(Cc2cccc(Cl)c2F)cc2c(=O)c(C(=O)O)cn([C@H](CO)C(C)C)c12 [Example 3-8, 6-(3-chloro-2-fluorobenzyl)-1-((1S)-1-(hydroxymethyl)-2-methylpropyl)-8-(4-methoxybutoxy)-4-oxo-1,4-dihydroquinoline-3-carboxylic acid] | 8.40 |
| CC(C)[C@@H](CO)n1cc(C(=O)O)c(=O)c2cc(Cc3cccc(Cl)c3F)cc(OCc3ccccc3)c21 [Example 3-9, 8-benzyloxy-6-(3-chloro-2-fluorobenzyl)-1-((1S)-1-(hydroxymethyl)-2-methylpropyl)-4-oxo-1,4-dihydroquinoline-3-carboxylic acid] | 8.30 |
| COCCOc1cc2c(cc1Cc1cccc(Cl)c1F)c(=O)c(C(=O)O)cn2[C@H](CO)C(C)C [Example 4-1, 6-(3-chloro-2-fluorobenzyl)-1-((1S)-1-(hydroxymethyl)-2-methylpropyl)-7-(2-methoxyethoxy)-4-oxo-1,4-dihydroquinoline-3-carboxylic acid] | 8.36 |
| CC(C)[C@@H](CO)n1cc(C(=O)O)c(=O)c2cc(Cc3cccc(Cl)c3F)c(OCCN(C)C)cc21 [Example 4-2, 6-(3-chloro-2-fluorobenzyl)-7-(2-(dimethylamino)ethoxy)-1-((1S)-1-(hydroxymethyl)-2-methylpropyl)-4-oxo-1,4-dihydroquinoline-3-carboxylic acid] | 8.22 |
| CNS(=O)(=O)COc1cc2c(cc1Cc1cccc(Cl)c1F)c(=O)c(C(=O)O)cn2[C@H](CO)C(C)C [Example 4-3, 6-(3-chloro-2-fluorobenzyl)-1-((1S)-1-(hydroxymethyl)-2-methylpropyl)-7-((methylamino)sulfonylmethoxy)-4-oxo-1,4-dihydroquinoline-3-carboxylic acid] | 8.33 |
| CCc1cc2c(cc1Cc1cccc(Cl)c1F)c(=O)c(C(=O)O)cn2[C@H](CO)C(C)C [Example 4-4, 6-(3-chloro-2-fluorobenzyl)-7-ethyl-1-((1S)-1-(hydroxymethyl)-2-methylpropyl)-4-oxo-1,4-dihydroquinoline-3-carboxylic acid] | 8.33 |
| CC(C)[C@@H](CO)n1cc(C(=O)O)c(=O)c2cc(Cc3cccc(Cl)c3F)c(OCCCCO)cc21 [Example 4-5, 6-(3-chloro-2-fluorobenzyl)-7-(4-hydroxybutoxy)-1-((1S)-1-(hydroxymethyl)-2-methylpropyl)-4-oxo-1,4-dihydroquinoline-3-carboxylic acid] | 8.47 |
| CC(C)[C@@H](CO)n1cc(C(=O)O)c(=O)c2cc(Cc3cccc(Cl)c3F)c(OCCCN(C)C)cc21 [Example 4-6, 6-(3-chloro-2-fluorobenzyl)-7-(3-(dimethylamino)propoxy)-1-((1S)-1-(hydroxymethyl)-2-methylpropyl)-4-oxo-1,4-dihydroquinoline-3-carboxylic acid] | 8.20 |
| CC(C)[C@@H](CO)n1cc(C(=O)O)c(=O)c2cc(Cc3cccc(Cl)c3F)c(OCCCCN(C)C)cc21 [Example 4-7, 6-(3-chloro-2-fluorobenzyl)-7-(4-(dimethylamino)butoxy)-1-((1S)-1-(hydroxymethyl)-2-methylpropyl)-4-oxo-1,4-dihydroquinoline-3-carboxylic acid] | 8.30 |
